Patent US20260152724A1, “SMALL INTESTINE EPITHELIUM-LIKE CELLS AND PRODUCTION METHOD THEREOF” (OSAKA UNIVERSITY, priority 2022, published 2026)
Like-named read-outs stand apart in the source and are kept apart here.

Assays:
CYP3A4 [1] = experiment: Elimination of a humoral factor from medium K in ELC monolayer culture, CYP3A4 activity (Example 9)
Protocol: (§1) Further, CYP3A4 activity was checked. The CYP3A4 activity was measured with P450-Glo™ CYP3A4 Assay Kits (Promega Corporation). […] The CYP3A4 activity was corrected by the amount of a protein per well measured with BCA Protein Assay Kit (Thermo Fisher Scientific Inc.).
This Example investigated an influence of a humoral factor in ELC monolayer culture. […] In this Example, culture was performed with addition of the medium to only an upper stage A in a cell culture insert (Corning Incorporated) used in monolayer culture (FIG. 9(1)).

[2] = test system: definitive endoderm cells; experiment: Induction of differentiation from definitive endoderm cells into intestinal progenitor cells, marker gene expression by qRT-PCR (Example 1); assay type: cell-based, human; settings: 4 days
Description: This Example examined a differentiation-inducing action in a culture system containing each concentration of retinoic acid or a GSK3β inhibitor, which was known to be important in differentiation from definitive endoderm. To induce differentiation from definitive endoderm cells into intestinal progenitor cells, the medium B shown in Reference Example 2 was used as a basal medium.
Then, RNAs were recovered and analyzed for gene expression levels of an intestinal progenitor cell marker CDX2, a hepatic progenitor cell marker AFP, and a pancreatic progenitor cell marker PDX1 by quantitative RT-PCR (qRT-PCR). The quantitative RT-PCR was performed according to a common method. Total RNAS were recovered and CDNAS were synthesized. Complementary DNAs (cDNAs) were subjected to qRT-PCR with Fast SYBR Green Master Mix (Applied Biosystems) and quantification with StepOnePlus Real time PCR system (Applied Biosystems). A glyceraldehyde 3-phosphate dehydrogenase (GAPDH) gene was used as an internal standard gene. In addition, each gene expression level of DMSO-treated groups, which were controls, was set to 1.0. Data was shown with n=3, mean±standard deviation, but n=2 for each LY (10 nM and 30 nM). A detection limit was represented by N.D.

[3] = test system: intestinal progenitor cells; experiment: MEK inhibitor in differentiation from intestinal progenitor cells into ELCs, gene expression by qRT-PCR (Example 3); assay type: cell-based, human; settings: PD 3 μM in medium C for 10 days, PD(+) versus PD(−); Conditions 2 and 3
Protocol: This Example investigated the action of a MEK inhibitor in a stage of inducing differentiation from intestinal progenitor cells into enterocyte-like cells (ELCs). PD0325901 (MedChemExpress LLC) was used as the MEK inhibitor. PD0325901 is sometimes abbreviated as PD in this Example and Examples described below. In a step from definitive endoderm cells to intestinal progenitor cells, culture e was performed under Conditions 2 and 3 shown in Table 3 in Example 2 according to the protocol illustrated in FIG. 3(1). […] Thus, the cells were induced to differentiate into enterocyte-like cells (ELCs). Subsequently, RNAs were recovered by the same procedure as in Example 1, and analyzed for each gene expression level of VIL1, CYP3A4, and MDR1 by qRT-PCR by the same method as in Example 2. Each gene expression level in an adult small intestine was set to 1.0. Data was shown with n=3, mean±standard deviation.

CYP3A4 [4] = experiment: CYP3A4 activity of ELCs, P450-Glo CYP3A4 assay (Example 3); assay type: cell-based, human; settings: PD 3 μM in medium C for 10 days, PD(+) versus PD(−); Luciferin-IPA substrate, corrected by protein per well
Protocol: as §1

P-gp = experiment: Elimination of a humoral factor from medium K in ELC monolayer culture, P-gp activity (Example 9); assay type: cell-based, human; settings: ELC monolayer (day 27 2D K), 6 days in medium K without the factor; digoxin substrate
Protocol: P-gp is an efflux transporter, and its activity was measured by allowing 1 μM digoxin to act through use of digoxin, [^3H (G)]-(PerkinElmer) and digoxin (Asahi Kasei Corporation) as substrate compounds, and allowing 100 μM verapamil to act as an inhibitor.

[5] = RA at each concentration (3, 10, 20, 30 μM) in medium B, DMSO-treated group = 1.0

Compound: NC(=O)c1ccc(-c2nc(-c3ccc4c(c3)OCO4)c(-c3ccccn3)[nH]2)cc1 [SB431542]
- CYP3A4 activity on elimination of the factor from medium K (CYP3A4 [1]): significantly increased

Compound: O=C1NC(=O)C(c2cnc3ccccn23)=C1c1cn2c3c(cc(F)cc13)CN(C(=O)N1CCCCC1)CC2 [LY, LY2090314]
- expression of CDX2 ([2]; LY at 20 nM (of 3, 10, 20, 30 nM) in medium B): highest expression
- expression of AFP (hepatic progenitor cell marker) ([2]; LY at 20 nM in medium B): low expressions
- expression of PDX1 ([2]; LY at 20 nM in medium B): low expressions

Compound: C=C1/C(=C\C=C2/CCC[C@]3(C)[C@@H]([C@H](C)CCCC(C)(C)O)CC[C@@H]23)C[C@@H](O)C[C@@H]1O [Vitamin D3, 1α,25-Dihydroxyvitamin D3]
- CYP3A4 activity on elimination of the factor from medium K (CYP3A4 [1]; ELC monolayer (day 27 2D K), 6 days in medium K without the factor): greatly decreased

Compound: O=C(NOC[C@H](O)CO)c1ccc(F)c(F)c1Nc1ccc(I)cc1F [PD, PD0325901]
- gene expression level of CYP3A4 [3]: clearly higher values
- gene expression level of MDR1 [3]: clearly higher values
- CYP3A4 activity (CYP3A4 [4]): clearly higher value
- CYP3A4 activity on elimination of the factor from medium K (CYP3A4 [1]): greatly decreased

Compound: Cc1c[nH]c(-c2cnc(NCCNc3ccc(C#N)cn3)nc2-c2ccc(Cl)cc2Cl)n1 [CHIR, CHIR99021]
- expression of CDX2 ([2]; CHIR at 10 μM (of 3, 10, 20 μM) in medium B): highest expression
- expression of AFP ([2]; CHIR at 10 μM in medium B): low expressions
- expression of PDX1 ([2]; CHIR at 10 μM in medium B): low expressions

Compound: EGF: Epidermal growth factor, component of medium K
- CYP3A4 activity on elimination of the factor from medium K (CYP3A4 [1]): significantly increased
- P-gp activity on elimination of the factor from medium K (P-gp): no influence

Compound: CC1=C(/C=C/C(C)=C/C=C/C(C)=C/C(=O)O)C(C)(C)CCC1 [RA, all-trans-Retinoic Acid]
- expression level of CDX2 (intestinal progenitor cell marker) [2, 5]: high expression levels
- expression level of PDX1 (pancreatic progenitor cell marker) [2, 5]: high expression levels
